Assay results as given in patent US20070249673A1, “Method for administering tolperisone” (priority 2006, published 2007).
Where two headings read alike, the source gives them in different places.

Tests used:
[1] = Food effect of tolperisone: open-label, single dose, 4-way crossover pharmacokinetic study in healthy male volunteers; details: for AUC0-oo / AUC0-tlast / Cmax / Tmax / t1/2 / λz: 150 mg single oral dose, plasma, mean ± SD
[2] = Pharmacokinetic profile of tolperisone after single and multi-dosing (150 mg regimen over 7 days) in healthy subjects under fasted and fed conditions; details: for AUC(0-t) / AUC(inf) / Cmax / t½ / λz / AUC(0-6): mean ± SD; for Tmax: median
Description: (§1) Dosing Regimen: Subjects in each cohort received tolperisone according to the following regimen.
(§2) Blood samples for the measurement of the plasma concentrations of tolperisone and metabolites M1 (4-hydroxymethyltolperisone) and M4 (4-carboxy-tolperisone) were collected at the times shown in Table 8.
(§3) Bioanalytical: Plasma concentrations of tolperisone and metabolites M1 and M4 were measured using a validated LC/MS/MS assay by Pharm-analyt Laboratory, Baden Austria. The limits of quantitation (LOQ) for tolperisone, Mi, and M4 in plasma were 0.2 ng/ML, and 0.01 μg/mL, respectively.
(§4) Pharmacokinetic Analyses: Pharmacokinetic parameters for tolperisone, M1, and M4 were calculated using non-compartmental analysis. Only plasma concentrations greater than or equal to the LOQ for the respective assay were used in the pharmacokinetic analyses. Actual blood sampling times were used in all pharmacokinetic analyses. […] All pharmacokinetic calculations were done using SAS® for Windows® Version 9.1.3.
(§5) The maximum plasma concentration (Cmax) and time to Cmax (Tmax) were taken directly from the data. The elimination rate constant, λz, was calculated as the negative of the slope of the terminal log-linear segment of the plasma concentration-time curve. The range of data to be used for each subject and treatment was determined by visual inspection of a semi-logarithmic plot of concentration versus time. Elimination half-life (t½) was calculated according to the following equation: [formula] Area under the curve to the final sample with a concentration greater than or equal to the LOQ [(AUC(0-t)] was calculated using the linear trapezoidal method and extrapolated to infinity [AUC(inf)] using: [formula] where Ctf is the final concentration≧LOQ.
(§6) The maximum plasma concentration (Cmax) and time to Cmax (Tmax) were taken directly from the data.
(§7) The maximum plasma concentration (Cmax) and time to Cmax (Tmax) were taken directly from the data. The elimination rate constant, λz, and half-life, t½, were calculated as described for the 0800 dose on Day 1 (above). Areas under the curve to the final sample with a concentration greater than or equal to the LOQ [(AUC(O-t)] and over the 6-hour dosing interval [AUC(0-6)] were calculated using the linear trapezoidal method.

[3] = human, in vivo
[4] = human, in vivo; remark: listed apart in the source
Description: as §1, §2, §3, §4, §5, §6, §7

clinical = details: human, in vivo
Description: as §1, §2, §3, §4, §5, §6, §7

[5] = Day 1 - 0800 Dose, Fasted, Females
[6] = Day 1 - 0800 Dose, Fasted, Males
[7] = Day 1 - 0800 Dose, Fasted, both sexes
[8] = Day 1 - 0800 Dose, Fed, Females
[9] = Day 1 - 0800 Dose, Fed, both sexes
[10] = Day 1, fed vs fasted, both sexes
[11] = Day 2 - 2200 Dose, Fasted, Females
[12] = Day 2 - 2200 Dose, Fasted, Males
[13] = Day 2 - 2200 Dose, Fasted, both sexes
[14] = Day 2 - 2200 Dose, Fed, Females
[15] = Day 2 - 2200 Dose, Fed, both sexes
[16] = Day 7 - 0800 Dose, Fasted, Females
[17] = Day 7 - 0800 Dose, Fasted, Males
[18] = Day 7 - 0800 Dose, Fasted, both sexes
[19] = Day 7 - 0800 Dose, Fed, Females
[20] = Day 7 - 0800 Dose, Fed, both sexes
[21] = Day 7 - 2200 Dose, Fasted, Females
[22] = Day 7 - 2200 Dose, Fasted, Males
[23] = Day 7 - 2200 Dose, Fasted, both sexes
[24] = Day 7 - 2200 Dose, Fed, Females
[25] = Day 7 - 2200 Dose, Fed, both sexes

An AUC0-oo ([1]; fasted state) of 1.82 ± 1.09 ng·h/mL, an AUC0-tlast ([1]; fasted state) of 1.20 ± 1.01 ng·h/mL and a Cmax ([1]; fasted state) of 1.70 ± 1.66 ng/mL were found for `CC(CN1CCCCC1)C(=O)c1ccc(CO)cc1` (stereo not shown) [4-HM-Tolperisone, 4-hydroxymethyl-tolperisone] in this work. It also gave a Tmax ([1]; fasted state) of 0.68 h, a t1/2 ([1]; fasted state) of 33 ± 12.6 min and a λz ([1]; fasted state) of 1.45 ± 0.51 h⁻¹. It also gave an AUC0-oo ([1]; fed state (high fat breakfast)) of 3.92 ± 2.37 ng·h/mL, an AUC0-tlast ([1]; fed state (high fat breakfast)) of 2.69 ± 2.18 ng·h/mL and a Cmax ([1]; fed state (high fat breakfast)) of 2.56 ± 3.04 ng/mL. The Tmax ([1]; fed state (high fat breakfast)) was 1.40 ± 0.77 h, the t1/2 ([1]; fed state (high fat breakfast)) was 71.4 ± 48 min and the λz ([1]; fed state (high fat breakfast)) was 0.95 ± 0.90 h⁻¹. The Tmax ([1]; fed state (high fat breakfast), listed as 4-HM-tolperisone) was 1.38 h, the “AUC0-oo, geometric mean for the ratio 150 mg fed/150 mg fasted, point estimate” value ([1]; Fed/fasted, 150 mg) was 1.95 and the “AUC0-tlast, geometric mean for the ratio 150 mg fed/150 mg fasted, point estimate” value ([1]; Fed/fasted, 150 mg) was 2.27. For the same compound, the “Cmax, geometric mean for the ratio 150 mg fed/150 mg fasted, point estimate” value ([1]; Fed/fasted, 150 mg) was 1.23, the “concentration in blood plasma eight hours after study drug administration” value ([1]; all studied doses (150, 300, and 450 mg)) was “below the limit of quantification” and the “AUC(0-t)” value [2, 5] was 3.98 ± 2.48 (3) h · ng/mL. The “AUC(inf)” value [2, 5] was 4.10 ± 2.55 (3) h · ng/mL, the Cmax [2, 5] was 2.06 ± 1.44 (3) ng/mL and the t½ [2, 5] was 1.03 ± 0.090 (3) h. The λz [2, 5] was 0.6787 ± 0.0627 (3) h^−1, the Tmax [2, 5] was 1.00 (3) h and the “AUC(0-t)” value [2, 6] was 3.49 ± 1.47 (7) h · ng/mL. For the same compound, the “AUC(inf)” value [2, 6] was 3.60 ± 1.48 (7) h · ng/mL, the Cmax [2, 6] was 2.30 ± 1.50 (7) ng/mL and the t½ [2, 6] was 1.16 ± 0.18 (7) h. The λz [2, 6] was 0.6081 ± 0.0792 (7) h^−1, the Tmax [2, 6] was 0.75 (7) h and the “AUC(0-t)” value [2, 7] was 3.63 ± 1.69 (10) h · ng/mL. For the same compound, the “AUC(inf)” value [2, 7] was 3.75 ± 1.72 (10) h · ng/mL, the Cmax [2, 7] was 2.22 ± 1.40 (10) ng/mL and the t½ [2, 7] was 1.12 ± 0.17 (10) h. The λz [2, 7] was 0.6293 ± 0.0788 (10) h^−1, the Tmax [2, 7] was 0.88 (10) h and the “AUC(0-t)” value [2, 8] was 8.23 ± 5.46 (4) h · ng/mL. The “AUC(inf)” value [2, 8] was 8.64 ± 5.79 (4) h · ng/mL, the Cmax [2, 8] was 3.29 ± 2.36 (4) ng/mL and the t½ [2, 8] was 1.04 ± 0.12 (4) h. For the same compound, the λz [2, 8] was 0.6700 ± 0.0749 (4) h^−1, the Tmax [2, 8] was 2.00 (4) h and the “AUC(0-t)” value ([2]; Day 1 - 0800 Dose, Fed, Males) was 4.22 ± 1.08 (6) h · ng/mL. For the same compound, the “AUC(inf)” value ([2]; Day 1 - 0800 Dose, Fed, Males) was 4.31 ± 1.12 (6) h · ng/mL, the Cmax ([2]; Day 1 - 0800 Dose, Fed, Males) was 3.07 ± 0.68 (6) ng/mL and the t½ ([2]; Day 1 - 0800 Dose, Fed, Males) was 1.03 ± 0.09 (6) h. For the same compound, the λz ([2]; Day 1 - 0800 Dose, Fed, Males) was 0.6791 ± 0.0554 (6) h^−1, the Tmax ([2]; Day 1 - 0800 Dose, Fed, Males) was 0.88 (6) h and the “AUC(0-t)” value [2, 9] was 5.82 ± 3.86 (10) h · ng/mL. The “AUC(inf)” value [2, 9] was 6.05 ± 4.11 (10) h · ng/mL, the Cmax [2, 9] was 3.16 ± 1.46 (10) ng/mL and the t½ [2, 9] was 1.03 ± 0.10 (10) h. The λz [2, 9] was 0.6754 ± 0.0599 (10) h^−1, the Tmax [2, 9] was 1.00 (10) h and the “increase in the mean value for AUC(inf) on administration with food” value [2, 10] was 61%. For the same compound, the “increase in the mean value for Cmax on administration with food” value [2, 10] was 42%, the Cmax [2, 11] was 1.83 ± 0.70 (3) ng/mL and the Tmax [2, 11] was 0.75 (3) h. The Cmax [2, 12] was 1.08 ± 0.68 (7) ng/mL, the Tmax [2, 12] was 1.50 (7) h and the Cmax [2, 13] was 1.30 ± 0.74 (10) ng/mL. For the same compound, the Tmax [2, 13] was 1.25 (10) h, the Cmax [2, 14] was 2.23 ± 1.99 (4) ng/mL and the Tmax [2, 14] was 1.25 (4) h. The Cmax ([2]; Day 2 - 2200 Dose, Fed, Males) was 1.24 ± 0.60 (6) ng/mL, the Tmax ([2]; Day 2 - 2200 Dose, Fed, Males) was 1.00 (6) h and the Cmax [2, 15] was 1.64 ± 1.33 (10) ng/mL. For the same compound, the Tmax [2, 15] was 1.00 (10) h, the “mean AUC(0-6) under fed conditions higher than fasted” value ([2]; Day 7, 0800 dose, both sexes) was 12% and the “mean Cmax under fed conditions lower than fasted” value ([2]; Day 7, 0800 dose, both sexes) was 12%. For the same compound, the “AUC(0-6)” value [2, 16] was 5.78 ± 2.18 (3) h · ng/mL, the Cmax [2, 16] was 3.79 ± 1.46 (3) ng/mL and the t½ [2, 16] was 1.04 ± 0.115 (3) h. The λz [2, 16] was 0.6728 ± 0.0705 (3) h^−1, the Tmax [2, 16] was 0.75 (3) h and the “AUC(0-6)” value [2, 17] was 4.13 ± 2.37 (7) h · ng/mL. The Cmax [2, 17] was 2.42 ± 1.62 (7) ng/mL, the t½ [2, 17] was 1.23 ± 0.22 (7) h and the λz [2, 17] was 0.5766 ± 0.0978 (7) h^−1. For the same compound, the Tmax [2, 17] was 0.75 (7) h, the “AUC(0-6)” value [2, 18] was 4.63 ± 2.33 (10) h · ng/mL and the Cmax [2, 18] was 2.83 ± 1.63 (10) ng/mL. For the same compound, the t½ [2, 18] was 1.18 ± 0.21 (10) h, the λz [2, 18] was 0.6054 ± 0.0982 (10) h^−1 and the Tmax [2, 18] was 0.75 (10) h. For the same compound, the “AUC(0-6)” value [2, 19] was 7.28 ± 4.43 (4) h · ng/mL, the Cmax [2, 19] was 3.67 ± 1.97 (4) ng/mL and the t½ [2, 19] was 1.08 ± 0.35 (2) h. The λz [2, 19] was 0.6783 ± 0.2222 (2) h^−1, the Tmax [2, 19] was 1.13 (4) h and the “AUC(0-6)” value ([2]; Day 7 - 0800 Dose, Fed, Males) was 3.82 ± 1.23 (6) h · ng/mL. The Cmax ([2]; Day 7 - 0800 Dose, Fed, Males) was 1.70 ± 0.67 (6) ng/mL, the t½ ([2]; Day 7 - 0800 Dose, Fed, Males) was 1.08 ± 0.32 (6) h and the λz ([2]; Day 7 - 0800 Dose, Fed, Males) was 0.6791 ± 0.1380 (6) h^−1. The Tmax ([2]; Day 7 - 0800 Dose, Fed, Males) was 1.00 (6) h, the “AUC(0-6)” value [2, 20] was 5.20 ± 3.25 (10) h · ng/mL and the Cmax [2, 20] was 2.49 ± 1.61 (10) ng/mL. The t½ [2, 20] was 1.08 ± 0.31 (08) h, the λz [2, 20] was 0.6789 ± 0.1437 (08) h^−1 and the Tmax [2, 20] was 1.00 (10) h. The Cmax [2, 21] was 3.43 ± 2.15 (3) ng/mL, the Tmax [2, 21] was 1.00 (3) h and the Cmax [2, 22] was 1.78 ± 1.23 (7) ng/mL. The Tmax [2, 22] was 1.03 (7) h, the Cmax [2, 23] was 2.27 ± 1.64 (10) ng/mL and the Tmax [2, 23] was 1.00 (10) h. For the same compound, the Cmax [2, 24] was 2.35 ± 1.97 (4) ng/mL, the Tmax [2, 24] was 1.25 (4) h and the Cmax ([2]; Day 7 - 2200 Dose, Fed, Males) was 2.09 ± 1.33 (6) ng/mL. The Tmax ([2]; Day 7 - 2200 Dose, Fed, Males) was 0.88 (6) h, the Cmax [2, 25] was 2.20 ± 1.51 (10) ng/mL and the Tmax [2, 25] was 1.00 (10) h. For the same compound, the “accumulation (increase in Cmax over the seven days of dosing)” value ([2]; seven days of dosing, up to 150 mg three times daily) was “little or no accumulation” and the mean elimination half-life ([2]; summary, not dependent on sex, food or duration of dosing) was roughly 1.1 h.
For `Cc1ccc(C(=O)C(C)CN2CCCCC2)cc1` (stereo not shown) [Tolperisone, 2-methyl-1-(4-methylphenyl)-3-(1-piperidinyl)-1-propanone], the AUC0-tlast ([3]; po, 150 mg) was 54.0 ± 53.2 ng·h/mL, the “AUC0-oo, geometric mean for the ratio 150 mg fed/150 mg fasted, point estimate” value ([3]; male) was 1.87 and the “AUC0-tlast, geometric mean for the ratio 150 mg fed/150 mg fasted, point estimate” value ([3]; male) was 1.92. The “Cmax, geometric mean for the ratio 150 mg fed/150 mg fasted, point estimate” value ([3]; male) was 1.18, the AUC0-oo ([3]; male, po, 150 mg) was 55.4 ± 53.4 ng·h/mL and the Cmax ([3]; male, po, 150 mg) was 36.1 ± 38.4 ng/mL. The Tmax ([3]; male, po, 150 mg) was 39.6 min, the t1/2 ([3]; male, po, 150 mg) was 2.06 ± 0.43 h and the “mean AUC(0-6) under fasted conditions higher than fed” value ([4]; both) was 127%. For the same compound, the “mean Cmax under fasted conditions higher than fed” value ([4]; both) was 213%, the t½ ([4]; both) was 1.59 ± 0.63 (10) h and the t½ ([4]; female) was 1.53 ± 0.08 (3) h. For the same compound, the t½ ([4]; male) was 1.62 ± 0.77 (7) h, the AUC(0-t) (clinical; both, AUC (0-6)) was 196 ± 129 ng·h/mL and the AUC(0-t) (clinical; both, AUC (0-t)) was 117 ± 93 ng·h/mL. For the same compound, the AUC(0-inf) (clinical; both, AUC (inf)) was 122 ± 97.5 ng·h/mL, the Tmax (clinical; both) was 52.8 min and the half-life (clinical; both, mean elimination half-life) was roughly 78 min. For the same compound, the half-life (clinical; both, t½) was 73.2 ± 14.4 min, the AUC(0-t) (clinical; female, AUC(0-6)) was 276 ± 151 ng·h/mL and the AUC(0-t) (clinical; female, AUC(0-t)) was 173 ± 152 ng·h/mL. The AUC(0-inf) (clinical; female, AUC(inf)) was 181 ± 161 ng·h/mL, the Tmax (clinical; female) was 60 min and the half-life (clinical; female, t½) was 70.2 ± 15 min. For the same compound, the AUC(0-t) (clinical; male, AUC(0-6)) was 162 ± 113 ng·h/mL, the AUC(0-t) (clinical; male, AUC(0-t)) was 93.1 ± 55.2 ng·h/mL and the AUC(0-inf) (clinical; male, AUC(inf)) was 96.3 ± 55.7 ng·h/mL. It also gave a Tmax (clinical; male) of 45 min and a half-life (clinical; male, t½) of 74.4 ± 15 min.
